Source: patent publication US20260297118A1, “SUBSTITUTED PYRIMIDINONE AND AZAPYRIMIDINONE COMPOUNDS, COMPOSITIONS, AND USES THEREOF” (LAKEWOOD AMEDEX, INC., priority 2023, published 2026)
Where two headings read alike, the source gives them in different places.

Legend:
Assay type in all cases: cell-based
[1] = tested on: S. aureus ATCC -3591; assay: MIC, broth microdilution, S. aureus ATCC -3591; set-up: unit not given beside the values; conditions: S. aureus ATCC -3591, Gram +ve; pH 3; 18 to 24 hours
Method: (§1) MIC testing is conducted using the broth (Mueller Hinton Broth) microdilution procedures relevant to each organism group as established by the Clinical and Laboratory Standards Institute (CLSI; 3-7). MIC plates are prepared in accordance with CLSI (3-7). To prepare the test plates, automated liquid handlers are used to conduct serial dilutions and liquid transfers. Automated liquid handlers utilized in this study include the Multidrop 384 (Labsystems, Helsinki, Finland) and the Biomek 2000 (Beckman Coulter, Fullerton CA). The solution is diluted to desired pH using 1 M Citric Acid or 1 M NaOH buffer. A standardized inoculum of each test organism is prepared per CLSI methods (3, 5-7) to equal a 0.5 McFarland standard in the appropriate media followed by an additional 1:20 dilution (1:10 for anaerobes).
(§2) The plates are then inoculated with 10 μL of the diluted 0.5 McFarland suspension using the Biomek 2000 from low to high drug concentration, resulting in a final concentration of approximately 5×10^5 CFU/mL per well. An un-inoculated plate is incubated for the purpose of assessing solubility of the drug in the test media. The plates are stacked 3 to 4 high, covered with a sterile lid on the top plate, and incubated for 18 to 24 hours according to CLSI. The MIC is recorded as the lowest concentration of respective compound that inhibited visible growth of the organism.

[2] = tested on: C. striatum ATCC-6940; assay: MIC, broth microdilution, C. striatum ATCC-6940; conditions: C. striatum ATCC-6940, Gram +ve; pH 3; 18 to 24 hours
Method: as §1, §2

[3] = tested on: H. influenzae ATCC-49247; assay: MIC, broth microdilution, H. influenzae ATCC-49247; set-up: unit not given beside the values; conditions: H. influenzae ATCC-49247, Gram −ve; pH 3; 18 to 24 hours
Method: as §1, §2

[4] = tested on: S. pyogenes ATCC-49399; assay: MIC, broth microdilution, S. pyogenes ATCC-49399; set-up: unit not given beside the values; conditions: S. pyogenes ATCC-49399, Gram +ve; pH 3; 18 to 24 hours
Method: as §1, §2

[5] = tested on: S. saprophyticus ATCC-49907; assay: MIC, broth microdilution, S. saprophyticus ATCC-49907; set-up: unit not given beside the values; conditions: S. saprophyticus ATCC-49907, Gram +ve; pH 3; 18 to 24 hours
Method: as §1, §2

[6] = tested on: K. pneumoniae ATCC-43816; assay: MIC, broth microdilution, K. pneumoniae ATCC-43816; set-up: unit not given beside the values; conditions: K. pneumoniae ATCC-43816, Gram −ve; pH 3; 18 to 24 hours
Method: as §1, §2

[7] = tested on: P. aeruginosa ATCC-27853; assay: MIC, broth microdilution, P. aeruginosa ATCC-27853; set-up: unit not given beside the values; conditions: P. aeruginosa ATCC-27853, Gram −ve; pH 3; 18 to 24 hours
Method: as §1, §2

[8] = tested on: S. dysgalactiae ATCC-6644; assay: MIC, broth microdilution, S. dysgalactiae ATCC-6644; set-up: unit not given beside the values; conditions: S. dysgalactiae ATCC-6644, Gram +ve; pH 3; 18 to 24 hours
Method: as §1, §2

[9] = tested on: Candida albicans (22972); assay: MIC, broth microdilution, Candida albicans (22972); conditions: pH 3, Mueller Hinton Broth, 18 to 24 hours
Method: as §1, §2

[10] = tested on: Escherichia coli (25922); assay: MIC, broth microdilution, Escherichia coli (25922); conditions: pH 3, Mueller Hinton Broth, 18 to 24 hours
Method: as §1, §2

[11] = tested on: C. freundii CDC-0157; assay: MIC, broth microdilution, C. freundii CDC-0157; set-up: unit not given beside the values; conditions: C. freundii CDC-0157, Gram −ve; pH 3; 18 to 24 hours
Method: as §1, §2

[12] = tested on: E. faecalis MMX-3353; assay: MIC, broth microdilution, E. faecalis MMX-3353; conditions: E. faecalis MMX-3353, Gram +ve; pH 3; 18 to 24 hours
Method: as §1, §2

[13] = tested on: K. pneumoniae ATCC BAA-2146; assay: MIC, broth microdilution, K. pneumoniae ATCC BAA-2146; set-up: unit not given beside the values; conditions: K. pneumoniae ATCC BAA-2146, Gram −ve; pH 3; 18 to 24 hours
Method: as §1, §2

[14] = tested on: A. baumannii ATCC-19606; assay: MIC, broth microdilution, A. baumannii ATCC-19606; set-up: unit not given beside the values; conditions: A. baumannii ATCC-19606, Gram −ve; pH 3; 18 to 24 hours
Method: as §1, §2

[15] = tested on: E. faecium MMX-3355; assay: MIC, broth microdilution, E. faecium MMX-3355; set-up: unit not given beside the values; conditions: E. faecium MMX-3355, Gram +ve; pH 3; 18 to 24 hours
Method: as §1, §2

[16] = tested on: E. cloacae ATCC BAA-2468; assay: MIC, broth microdilution, E. cloacae ATCC BAA-2468; set-up: unit not given beside the values; conditions: E. cloacae ATCC BAA-2468, Gram −ve; pH 3; 18 to 24 hours
Method: as §1, §2

[17] = tested on: S. haemolyticus ATCC-29970; assay: MIC, broth microdilution, S. haemolyticus ATCC-29970; conditions: S. haemolyticus ATCC-29970, Gram +ve; pH 3; 18 to 24 hours
Method: as §1, §2

[18] = tested on: M. morganii CDC-0519; assay: MIC, broth microdilution, M. morganii CDC-0519; set-up: unit not given beside the values; conditions: M. morganii CDC-0519, Gram −ve; pH 3; 18 to 24 hours
Method: as §1, §2

[19] = tested on: A. radioresistens MMX-8551; assay: MIC, broth microdilution, A. radioresistens MMX-8551; set-up: unit not given beside the values; conditions: A. radioresistens MMX-8551, Gram −ve; pH 3; 18 to 24 hours
Method: as §1, §2

[20] = tested on: E. coli MMX-8870; assay: MIC, broth microdilution, E. coli MMX-8870; conditions: E. coli MMX-8870, Gram −ve; pH 3; 18 to 24 hours
Method: as §1, §2

[21] = tested on: P. mirabilis CDC-0155; assay: MIC, broth microdilution, P. mirabilis CDC-0155; set-up: unit not given beside the values; conditions: P. mirabilis CDC-0155, Gram −ve; pH 3; 18 to 24 hours
Method: as §1, §2

[22] = tested on: Pseudomonas aeruginosa (27853); assay: MIC, broth microdilution, Pseudomonas aeruginosa (27853); conditions: pH 3, Mueller Hinton Broth, 18 to 24 hours
Method: as §1, §2

[23] = tested on: S. aureus ATCC-29213; assay: MIC, broth microdilution, S. aureus ATCC-29213; set-up: unit not given beside the values; conditions: S. aureus ATCC-29213, Gram +ve; pH 3; 18 to 24 hours
Method: as §1, §2

[24] = tested on: S. agalactiae ATCC-13813; assay: MIC, broth microdilution, S. agalactiae ATCC-13813; set-up: unit not given beside the values; conditions: S. agalactiae ATCC-13813, Gram +ve; pH 3; 18 to 24 hours
Method: as §1, §2

[25] = tested on: E. faecalis ATCC-29212; assay: MIC, broth microdilution, E. faecalis ATCC-29212; set-up: unit not given beside the values; conditions: E. faecalis ATCC-29212, Gram +ve; pH 3; 18 to 24 hours
Method: as §1, §2

[26] = tested on: E. faecium ATCC-35667; assay: MIC, broth microdilution, E. faecium ATCC-35667; conditions: E. faecium ATCC-35667, Gram +ve; pH 3; 18 to 24 hours
Method: as §1, §2

[27] = tested on: E. coli ATCC-25922; assay: MIC, broth microdilution, E. coli ATCC-25922; set-up: unit not given beside the values; conditions: E. coli ATCC-25922, Gram −ve; pH 3; 18 to 24 hours
Method: as §1, §2

[28] = tested on: Staphylococcus aureus (43330); assay: MIC, broth microdilution, Staphylococcus aureus (43330); conditions: pH 3, Mueller Hinton Broth, 18 to 24 hours
Method: as §1, §2

CCCCOP(=O)(O)OC[C@H]1O[C@@H](n2ccc(N(C)C)nc2=O)[C@H](OC)[C@@H]1O [LAK-021, (2R,3S,4R,5R)-5-(4-N,N-dimethylamino-2-oxopyrimidin-1(2H)-yl)-3-hydroxy-4-methoxy-tetrahydrofuran-2-methyl butyl phosphate]
MIC [1]: 6.25 | MIC [2]: 0.78 | MIC [3]: 0.39 | MIC [4]: 0.78 | MIC [5]: 1.56 | MIC [6]: 1.56 | MIC [7]: 0.78 | MIC [8]: 0.78 | MIC ([9]; read-out: MIC): > 50 mg/mL | MIC ([10]; read-out: MIC): 1.25 mg/mL | MIC [11]: 1.56 | MIC [12]: 3.13 | MIC [13]: 1.56 | MIC [14]: 1.56 | MIC [15]: 3.13 | MIC [16]: 1.56 | MIC [17]: 3.13 | MIC [18]: 1.56 | MIC [19]: 1.56 | MIC [20]: 1.56 | MIC [21]: 1.56 | MIC ([22]; read-out: MIC): 0.8 mg/mL | MIC [23]: 3.13 | MIC [24]: 0.78 | MIC [25]: 3.13 | MIC [26]: 3.13 | MIC [27]: 0.78 | MIC ([28]; read-out: MIC): 4.5 mg/mL

CCCCOP(=O)(O)OC[C@H]1O[C@@H](n2ccc(NC)nc2=O)C[C@@H]1O [LAI-009, butyl (((2R,3S,5R)-3-hydroxy-5-(4-(N-methylamino)-2-oxopyrimidin-1(2H)-yl)tetrahydrofuran-2-yl)methyl) hydrogen phosphate]
MIC ([9]; read-out: MIC): 50 mg/mL | MIC ([10]; read-out: MIC): 25 mg/mL | MIC ([22]; read-out: MIC): 5 mg/mL | MIC ([28]; read-out: MIC): 25 mg/mL

(2R,3S,5R)-5-(4-amino-2-oxopyridizin-1(2H)-yl)-3-hydroxytetrahydrofuran-2-methyl butyl phosphate [LAI-011]
MIC [9]: 5 mg/mL | MIC [10]: 25 mg/mL | MIC [22]: 5 mg/mL | MIC [28]: 25 mg/mL

Nc1ccn([C@H]2C[C@H](O)[C@@H](COP(=O)(O)OCCCC(F)(F)F)O2)c(=O)n1 [LAI-005, ((2R,3S,5R)-5-(4-amino-2-oxopyrimidin-1(2H)-yl)-3-hydroxytetrahydrofuran-2-yl)methyl (4,4,4-trifluorobutyl) hydrogen phosphate]
MIC ([10]; read-out: MIC): 25 mg/mL | MIC ([22]; read-out: MIC): 25 mg/mL | MIC ([28]; read-out: MIC): 50 mg/mL
